Measurements reported in paper PMC7252524 (Journal of medicinal chemistry, 2019).

Assay: Mouse PK analysis, large intestine
Type: in vivo

CC1CCN(C2CCN(S(=O)(=O)c3ccc(Cl)cc3)CC2)CC1 [compound 16, 1’-((4-Chlorophenyl)sulfonyl)-4-methyl-1,4’-bipiperidine]
Large Intestinal PK AUClast (iv, 10 mg/kg): 262,874 ng·min/g

COc1ccc(S(=O)(=O)N2CCC(N3CCC(C)CC3)CC2)cc1 [compound 6, 1’-((4-Methoxyphenyl)sulfonyl)-4-methyl-1,4’-bipiperidine]
Large Intestinal PK AUClast (ip, 10 mg/kg): 737,709 ng·min/g

C#CCC1CCN(C2CCN(S(=O)(=O)c3ccc(Br)cc3)CC2)CC1 [compound 92, 1’-((4-Bromophenyl)sulfonyl)-4-(prop-2-yn-1-yl)-1,4’-bipiperidine]
Large Intestinal PK AUClast (ip, 10 mg/kg): 633,289 ng·min/g
Large Intestinal PK AUClast (iv, 10 mg/kg): 559,037 ng·min/g

CC1CCN(C2CCN(S(=O)(=O)c3ccc(OC(F)F)cc3)CC2)CC1 [compound 22, 1’-((4-(Difluoromethoxy)phenyl)sulfonyl)-4-methyl-1,4’-bipiperidine]
Large Intestinal PK AUClast (ip, 10 mg/kg): 790,425 ng·min/g
Large Intestinal PK AUClast (iv, 5 mg/kg): 511,878 ng·min/g
Large Intestinal PK AUClast (po, 20 mg/kg): 890,969 ng·min/g
